# Experimental data: US7629470B2, “Formation of tetra-substituted enamides and stereoselective reduction thereof” (Merck & Co., Inc., priority 2004, dated 2009)
# Experiment: Solubility of chiral amide in IPA
# Format: physicochemical
# Conditions: organic solvent or mixture; in IPA (isopropyl alcohol); grams of chiral amide per liter of solvent; concentration up to 45° C. under vacuum
# Method: After the hydrogenation was complete (Example 8), 64.9 g of solution was concentrated to 16.9 g up to 45° C. under vacuum. […] MTBE (348.2 g) was added, and the solution was washed with 250 mL of 10% NH4Cl solution. The organic solution was then washed an additional 3 times with water (248 mL for each wash). The residual organic solution was concentrated with MTBE (284.4 g) to azeotrope the water. The solution was concentrated to 53±5 g/kg. The final water concentration was 532 ppm. This solution was then seeded with chiral amide MTBE hemisolvate, 0.5 wt. %, and aged for 20 hours at 20-25° C. At this point, heptane was charge in three aliquots over specific periods of time. The first aliquot of heptane (54 mL), was charged in 9 hours. The second aliquot of heptane (90 mL) was charged in 6 hours. The third aliquot of heptane (294 mL) was charged in 3 hours. At the conclusion of the heptane charge, the solution was aged at 20-25° C. for 2 hours. The solution was filtered over a 5 micron fritted filter. A displacement wash was conducted using 164 mL of 5:1 n-heptane/MTBE, and the solids were dried at less than 45° C. under vacuum. The final water concentration was <0.5 wt. % (by KF). The final MTBE concentration was 11-12 wt. % (as a hemisolvate) and the final heptane concentration was <0.5 wt. % (both by GC). The chiral amide/MTBE hemisolvate was isolated in 90% yield, 99.3 LCAP.
smiles,measurement,value
"C[C@H](NC(=O)C(C)(C)Oc1ccc(C(F)(F)F)cn1)[C@@H](Cc1ccc(Cl)cc1)c1cccc(C(N)=O)c1 [chiral amide, 3-{(1S,2S)-1-(4-chlorobenzyl)-2-[(2-methyl-2-{[5-(trifluoromethyl)pyridine-2-yl]oxy}propanoyl)amino]-propyl}benzamide]",solubility,> 1350 mg/mL
